Measurements reported in ChEMBL document CHEMBL3124815, “Discovery of a selective kinase inhibitor (TAK-632) targeting pan-RAF inhibition: design, synthesis, and biological evaluation of C-7-substituted 1,3-benzothiazole derivatives” (J Med Chem, 2013).

How the values were obtained:
[1] = target: T1, Serine/threonine-protein kinase B-raf (Homo sapiens, UniProt P15056); experiment: Inhibition of N-terminal FLAG-tagged wild type BRAF (unknown origin) expressed in baculovirus system using GST-MEK1(K96R) as substrate after 20 mins
Rattus norvegicus [2] = experiment: Toxicity in F344 nude rat xenografted with human HMVII cells expressing NRAS Q61K/BRAF G469V mutant assessed as body weight change at 3.9 mg/kg, po bid for 14 days; assay type: organism-based; parameters: dose 3.9 mg/kg, route oral; conditions: in vivo, 336 h
[3] = Antitumor activity against human HMVII cells expressing NRAS Q61K/BRAF G469V mutant xenografted in F344 nude rat assessed as reduction in tumor size at 24.1 mg/kg, po bid for 14 days relative to control; assay type: functional, HMV-2
[4] = Antitumor activity against human HMVII cells expressing NRAS Q61K/BRAF G469V mutant xenografted in F344 nude rat assessed as reduction in tumor size at 3.9 mg/kg, po bid for 14 days relative to control; assay type: functional, HMV-2
Rattus norvegicus [5] = experiment: Toxicity in F344 nude rat xenografted with human A375 cells expressing BRAF V600E mutant assessed as body weight change at 24.1 mg/kg, po bid for 14 days relative to control; assay type: organism-based, A-375; parameters: dose 24.1 mg/kg, route oral; conditions: in vivo, 336 h
A-375 [6] = experiment: Antitumor activity against human A375 cells expressing BRAF V600E mutant xenografted in F344 nude rat assessed as reduction in tumor size at 3.9 mg/kg, po bid for 14 days relative to control; assay type: functional
[7] = Oral bioavailability in dog at 10 mg/kg; assay type: ADME, organism-based, Canis lupus familiaris; conditions: in vivo
[8] = Oral bioavailability in rat at 25 mg/kg; assay type: ADME, organism-based; conditions: in vivo
[9] = AUC (0 to 24 hrs) in dog at 10 mg/kg, po; assay type: ADME, organism-based, Canis lupus familiaris; parameters: time < 24 hr, dose 10 mg/kg, route oral; conditions: plasma
[10] = AUC (0 to 24 hrs) in dog at 1 mg/kg, iv; assay type: ADME, organism-based, Canis lupus familiaris; parameters: time < 24 hr, dose 1 mg/kg, route intravenous; conditions: plasma
[11] = AUC (0 to 24 hrs) in rat at 25 mg/kg, po; assay type: ADME, organism-based; parameters: time < 24 hr, dose 25 mg/kg, route oral; conditions: plasma
[12] = Mean residence time in dog at 10 mg/kg, po; assay type: ADME, organism-based, Canis lupus familiaris; parameters: dose 10 mg/kg, route oral; conditions: in vivo
[13] = Volume of distribution at steady state in dog at 1 mg/kg, iv; assay type: ADME, organism-based, Canis lupus familiaris; parameters: dose 1 mg/kg, route intravenous; conditions: in vivo, read-out: Vdss
[14] = Volume of distribution at steady state in rat at 1 mg/kg, iv; assay type: ADME, organism-based; parameters: dose 1 mg/kg, route intravenous; conditions: in vivo, read-out: Vdss
[15] = Total clearance in dog at 1 mg/kg, iv; assay type: ADME, organism-based, Canis lupus familiaris; parameters: dose 1 mg/kg, route intravenous; conditions: in vivo
[16] = Antiproliferative activity against human HMVII cells assessed as growth inhibition after 72 hrs by chemi-luminescence cell viability assay; assay type: functional; conditions: HMV-2, 72 h
A-375 [17] = experiment: Antiproliferative activity against human A375 cells assessed as growth inhibition after 72 hrs by chemi-luminescence cell viability assay; assay type: functional; conditions: A-375, 72 h
[18] = Inhibition of NRASQ61k/BRAFG469V-mutant in human HMVII cells assessed as phosphorylation of ERK after 2 hrs by Western blotting analysis; assay type: cell-based
[19] = Inhibition of NRASQ61k/BRAFG469V-mutant in human HMVII cells assessed as phosphorylation of MEK after 2 hrs by Western blotting analysis; assay type: cell-based
[20] = target: T2, Serine/threonine-protein kinase B-raf (Homo sapiens, UniProt P15056, V600E); experiment: Inhibition of BRAF V600E mutant in human A375 cells assessed as phosphorylation of MEK after 2 hrs by Western blotting analysis; assay type: cell-based, A-375
Target sequence in this assay (P15056 2-766 V600E limits assumed): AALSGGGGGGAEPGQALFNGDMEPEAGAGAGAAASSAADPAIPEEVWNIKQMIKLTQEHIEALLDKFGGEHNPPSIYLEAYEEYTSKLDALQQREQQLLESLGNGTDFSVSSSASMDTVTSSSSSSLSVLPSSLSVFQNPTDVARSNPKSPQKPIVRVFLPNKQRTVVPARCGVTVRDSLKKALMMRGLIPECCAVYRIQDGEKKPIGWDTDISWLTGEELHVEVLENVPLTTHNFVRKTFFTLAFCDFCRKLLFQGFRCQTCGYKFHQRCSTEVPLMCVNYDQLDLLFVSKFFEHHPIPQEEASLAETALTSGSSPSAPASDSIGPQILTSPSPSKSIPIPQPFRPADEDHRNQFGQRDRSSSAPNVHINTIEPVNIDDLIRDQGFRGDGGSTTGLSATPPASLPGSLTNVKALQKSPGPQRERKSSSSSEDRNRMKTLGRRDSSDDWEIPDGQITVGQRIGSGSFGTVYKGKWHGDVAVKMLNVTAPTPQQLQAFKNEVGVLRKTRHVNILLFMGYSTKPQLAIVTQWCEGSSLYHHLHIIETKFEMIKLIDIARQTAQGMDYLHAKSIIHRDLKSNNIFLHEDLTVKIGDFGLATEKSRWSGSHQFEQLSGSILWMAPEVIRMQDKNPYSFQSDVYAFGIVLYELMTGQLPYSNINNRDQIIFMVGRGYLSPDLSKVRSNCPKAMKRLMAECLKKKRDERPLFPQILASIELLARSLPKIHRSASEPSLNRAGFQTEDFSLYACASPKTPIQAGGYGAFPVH

[21] = target: T2, Serine/threonine-protein kinase B-raf; experiment: Inhibition of BRAF V600E mutant (unknown origin) compound preincubated for 1 hr in presence of 1000 uM ATP
Target sequence in this assay (P15056 2-766 V600E limits assumed): as above

[22] = target: T2, Serine/threonine-protein kinase B-raf; experiment: Inhibition of BRAF V600E mutant (unknown origin) compound preincubated for 1 hr in presence of 5 uM ATP
Target sequence in this assay (P15056 2-766 V600E limits assumed): as above

[23] = target: T2, Serine/threonine-protein kinase B-raf; experiment: Inhibition of BRAF V600E mutant (unknown origin) in presence of 1000 uM ATP by ELISA
Target sequence in this assay (P15056 2-766 V600E limits assumed): as above

[24] = target: T1, Serine/threonine-protein kinase B-raf; experiment: Binding affinity to BRAF (unknown origin) assessed as equilibrium dissociation constant by surface plasmon resonance analysis
[25] = target: Dual specificity mitogen-activated protein kinase kinase 1 (Homo sapiens, UniProt Q02750); experiment: Inhibition of N-terminal GST-tagged MEK1 (unknown origin) expressed in 293 cells using GST-ERK1(K71A) as substrate after 20 mins
[26] = target: Mitogen-activated protein kinase 14 (Homo sapiens, UniProt Q16539); experiment: Inhibition of C-terminal FLAG-tagged p38 alpha (unknown origin) expressed in baculovirus system using MBP as substrate after 60 mins
[27] = target: Serine/threonine-protein kinase Chk1 (Homo sapiens, UniProt O14757); experiment: Inhibition of CHK1 (unknown origin) using alpha-casein as substrate after 20 mins
[28] = target: Protein kinase C theta type (Homo sapiens, UniProt Q04759); experiment: Inhibition of C-terminal FLAG-tagged PKC-theta (unknown origin) expressed in […] using MBP as substrate after 60 mins
[29] = target: Inhibitor of nuclear factor kappa-B kinase subunit beta (Homo sapiens, UniProt O14920); experiment: Inhibition of C-terminal FLAG-tagged IKK beta (unknown origin) expressed in baculovirus system using IkappaBalpha as substrate after 40 mins
[30] = target: Mast/stem cell growth factor receptor Kit (Homo sapiens, UniProt P10721); experiment: Inhibition of c-Kit receptor (unknown origin) using biotinylated poly-Glu-Tyr (4:1) as substrate preincubated for 5 mins measured after 12 hrs
Angiopoietin-1 receptor = Angiopoietin-1 receptor (Homo sapiens, UniProt Q02763); experiment: Inhibition of TIE2 receptor (unknown origin) using biotinylated poly-Glu-Tyr (4:1) as substrate preincubated for 5 mins measured after 12 hrs
[31] = target: Epidermal growth factor receptor (Homo sapiens, UniProt P00533); experiment: Inhibition of N-terminal peptide (DYKDDDD)-tagged EGFR (unknown origin) expressed in baculovirus system using biotinylated poly-Glu-Tyr (4:1) as substrate preincubated for 5 mins measured after 12 hrs by scintillation counting
[32] = target: Platelet-derived growth factor receptor beta (Homo sapiens, UniProt P09619); experiment: Inhibition of PDGFR beta (unknown origin) using biotinylated poly-Glu-Tyr (4:1) as substrate preincubated for 5 mins measured after 12 hrs
[33] = target: Fibroblast growth factor receptor 3 (Homo sapiens, UniProt P22607); experiment: Inhibition of FGFR3 (unknown origin) using biotinylated poly-Glu-Tyr (4:1) as substrate preincubated for 5 mins measured after 12 hrs
Mus musculus = experiment: AUC (0 to 8 hrs) in mouse at 10 mg/kg, po; assay type: ADME, organism-based, Blood; parameters: time < 8 hr, dose 10 mg/kg, route oral; conditions: in vivo
[34] = target: T2, Serine/threonine-protein kinase B-raf
Target sequence in this assay (P15056 whole entry V600E): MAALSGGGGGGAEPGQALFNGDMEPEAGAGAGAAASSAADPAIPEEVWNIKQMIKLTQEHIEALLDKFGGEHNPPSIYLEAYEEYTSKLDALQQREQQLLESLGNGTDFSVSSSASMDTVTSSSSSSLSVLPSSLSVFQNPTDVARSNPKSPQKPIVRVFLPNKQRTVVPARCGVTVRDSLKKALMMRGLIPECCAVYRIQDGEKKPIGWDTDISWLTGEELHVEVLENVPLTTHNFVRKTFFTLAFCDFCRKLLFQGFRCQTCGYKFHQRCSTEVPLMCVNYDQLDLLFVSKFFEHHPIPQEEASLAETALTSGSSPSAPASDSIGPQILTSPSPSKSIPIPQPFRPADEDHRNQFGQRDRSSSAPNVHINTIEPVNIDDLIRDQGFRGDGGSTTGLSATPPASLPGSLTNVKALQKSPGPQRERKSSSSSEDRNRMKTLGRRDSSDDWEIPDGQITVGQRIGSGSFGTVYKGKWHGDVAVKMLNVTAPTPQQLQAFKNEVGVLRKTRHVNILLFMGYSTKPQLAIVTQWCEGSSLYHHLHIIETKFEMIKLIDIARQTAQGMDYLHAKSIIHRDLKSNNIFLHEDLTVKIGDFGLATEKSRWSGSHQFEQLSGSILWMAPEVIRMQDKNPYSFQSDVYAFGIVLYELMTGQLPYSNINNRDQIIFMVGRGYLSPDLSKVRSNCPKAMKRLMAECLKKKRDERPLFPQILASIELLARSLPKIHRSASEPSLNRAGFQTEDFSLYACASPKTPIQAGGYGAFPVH

[35] = target: T1, Serine/threonine-protein kinase B-raf
Description: Binding affinity to BRAF (unknown origin) assessed as dissociation half life by surface plasmon resonance analysis

T1 sequence (P15056 whole entry): as the sequence (P15056 whole entry V600E) above, with E600V counted along it
Chain of Epidermal growth factor receptor (P00533 whole entry): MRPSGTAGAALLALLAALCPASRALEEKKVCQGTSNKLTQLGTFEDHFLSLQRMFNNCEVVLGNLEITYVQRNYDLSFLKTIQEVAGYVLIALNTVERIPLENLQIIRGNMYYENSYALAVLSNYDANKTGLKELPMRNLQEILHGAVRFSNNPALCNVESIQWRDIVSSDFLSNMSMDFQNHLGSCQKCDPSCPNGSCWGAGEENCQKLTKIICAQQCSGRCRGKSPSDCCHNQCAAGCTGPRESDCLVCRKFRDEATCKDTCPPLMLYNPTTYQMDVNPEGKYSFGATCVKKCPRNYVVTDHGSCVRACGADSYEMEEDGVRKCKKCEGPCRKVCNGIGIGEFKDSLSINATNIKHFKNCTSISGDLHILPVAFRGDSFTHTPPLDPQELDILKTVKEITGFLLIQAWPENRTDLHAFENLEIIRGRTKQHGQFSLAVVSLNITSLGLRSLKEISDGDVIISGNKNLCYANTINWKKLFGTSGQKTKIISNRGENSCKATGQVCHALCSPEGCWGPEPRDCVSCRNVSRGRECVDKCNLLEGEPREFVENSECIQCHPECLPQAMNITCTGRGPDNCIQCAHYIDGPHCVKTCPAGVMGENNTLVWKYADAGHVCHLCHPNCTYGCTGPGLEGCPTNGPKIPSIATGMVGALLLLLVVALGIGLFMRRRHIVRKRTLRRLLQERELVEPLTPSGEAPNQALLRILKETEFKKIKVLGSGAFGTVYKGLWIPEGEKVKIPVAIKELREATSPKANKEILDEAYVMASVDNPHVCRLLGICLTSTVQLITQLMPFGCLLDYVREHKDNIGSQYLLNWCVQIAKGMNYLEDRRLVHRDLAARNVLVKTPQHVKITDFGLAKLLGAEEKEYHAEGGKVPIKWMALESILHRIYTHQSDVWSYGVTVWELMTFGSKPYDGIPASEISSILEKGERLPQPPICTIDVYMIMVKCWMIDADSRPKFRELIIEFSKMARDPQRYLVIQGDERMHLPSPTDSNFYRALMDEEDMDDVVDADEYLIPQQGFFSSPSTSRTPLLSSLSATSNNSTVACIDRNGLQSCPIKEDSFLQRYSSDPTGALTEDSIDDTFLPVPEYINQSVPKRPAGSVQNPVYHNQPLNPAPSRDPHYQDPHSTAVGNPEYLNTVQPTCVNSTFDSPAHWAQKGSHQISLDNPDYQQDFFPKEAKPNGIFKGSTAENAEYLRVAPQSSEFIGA
Chain of Mitogen-activated protein kinase 14 (Q16539 whole entry): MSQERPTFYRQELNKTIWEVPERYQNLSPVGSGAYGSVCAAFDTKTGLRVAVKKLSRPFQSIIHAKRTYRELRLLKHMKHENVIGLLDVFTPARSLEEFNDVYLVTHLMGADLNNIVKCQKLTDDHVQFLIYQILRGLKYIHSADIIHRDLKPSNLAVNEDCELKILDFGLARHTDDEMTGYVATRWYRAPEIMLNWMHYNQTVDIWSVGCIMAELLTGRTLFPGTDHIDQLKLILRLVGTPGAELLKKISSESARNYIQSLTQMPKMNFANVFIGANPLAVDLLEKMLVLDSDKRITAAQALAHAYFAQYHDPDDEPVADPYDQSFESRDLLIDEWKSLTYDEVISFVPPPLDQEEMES
Chain of Serine/threonine-protein kinase Chk1 (O14757 whole entry): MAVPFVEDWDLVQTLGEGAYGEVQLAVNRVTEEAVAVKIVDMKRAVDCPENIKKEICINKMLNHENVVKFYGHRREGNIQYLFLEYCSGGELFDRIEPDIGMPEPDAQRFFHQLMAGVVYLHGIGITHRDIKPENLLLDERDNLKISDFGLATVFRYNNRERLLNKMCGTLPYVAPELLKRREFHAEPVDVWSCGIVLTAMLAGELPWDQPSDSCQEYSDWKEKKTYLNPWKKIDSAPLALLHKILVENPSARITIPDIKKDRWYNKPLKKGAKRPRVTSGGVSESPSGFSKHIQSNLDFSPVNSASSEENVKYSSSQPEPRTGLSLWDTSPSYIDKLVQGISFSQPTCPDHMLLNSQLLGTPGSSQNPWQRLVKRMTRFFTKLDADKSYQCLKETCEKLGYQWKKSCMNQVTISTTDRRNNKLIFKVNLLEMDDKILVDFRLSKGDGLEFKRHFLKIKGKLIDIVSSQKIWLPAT
Chain of Angiopoietin-1 receptor (Q02763 whole entry): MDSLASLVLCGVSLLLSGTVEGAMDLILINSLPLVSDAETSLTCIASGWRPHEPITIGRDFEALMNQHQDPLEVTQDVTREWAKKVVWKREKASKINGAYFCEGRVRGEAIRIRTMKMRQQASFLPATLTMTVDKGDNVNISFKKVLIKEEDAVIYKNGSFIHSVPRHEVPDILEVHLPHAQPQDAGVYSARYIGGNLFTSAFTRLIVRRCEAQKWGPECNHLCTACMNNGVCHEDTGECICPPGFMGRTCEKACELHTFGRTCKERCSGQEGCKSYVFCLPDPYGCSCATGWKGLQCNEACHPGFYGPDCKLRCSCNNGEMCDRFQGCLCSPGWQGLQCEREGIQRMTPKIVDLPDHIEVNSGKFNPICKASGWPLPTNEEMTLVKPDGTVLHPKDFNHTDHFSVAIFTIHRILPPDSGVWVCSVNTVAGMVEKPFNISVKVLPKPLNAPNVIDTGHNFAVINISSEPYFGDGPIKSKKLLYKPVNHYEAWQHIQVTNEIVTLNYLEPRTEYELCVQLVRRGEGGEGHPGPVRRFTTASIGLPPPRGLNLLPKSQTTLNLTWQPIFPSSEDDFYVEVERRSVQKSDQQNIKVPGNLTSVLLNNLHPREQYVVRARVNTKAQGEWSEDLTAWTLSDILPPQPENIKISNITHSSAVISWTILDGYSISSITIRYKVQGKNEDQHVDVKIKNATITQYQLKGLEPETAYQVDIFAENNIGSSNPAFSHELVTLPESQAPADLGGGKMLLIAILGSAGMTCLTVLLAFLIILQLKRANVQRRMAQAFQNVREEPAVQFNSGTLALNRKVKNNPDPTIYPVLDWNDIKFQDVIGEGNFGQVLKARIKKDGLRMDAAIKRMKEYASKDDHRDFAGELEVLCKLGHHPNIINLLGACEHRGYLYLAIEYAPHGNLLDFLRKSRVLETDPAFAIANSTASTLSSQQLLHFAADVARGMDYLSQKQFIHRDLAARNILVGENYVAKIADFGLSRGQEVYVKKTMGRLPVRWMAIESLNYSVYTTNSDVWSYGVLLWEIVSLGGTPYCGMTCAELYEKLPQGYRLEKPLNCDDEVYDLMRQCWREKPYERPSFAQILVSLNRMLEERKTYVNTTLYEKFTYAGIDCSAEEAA

Compound: N#Cc1c(Oc2ccc(F)c(NC(=O)Cc3cccc(C(F)(F)F)c3)c2)ccc2nc(NC(=O)C3CC3)sc12
- IC50 [1]: 8.3 nM
- Activity (Rattus norvegicus [2]): -4.8 g
- T/C [3]: 0%
- T/C [4]: 52%
- Activity (Rattus norvegicus [5]): 18.6 g
- T/C (A-375 [6]): 62.2%
- bioavailability [7]: 108%
- bioavailability [8]: 51.7%
- AUC(0-t) at 24 h [9]: 15500 ng·h/mL
- AUC(0-t) at 24 h [10]: 1430 ng·h/mL
- AUC(0-t) at 24 h [11]: 32500 ng·h/mL
- MRT [12]: 7.12 h
- Vd [13]: 1.57 L/kg
- Vd [14]: 1.87 L/kg
- clearance [15]: 11.7 mL/min/kg
- GI50 [16]: 200 nM
- GI50 (A-375 [17]): 66 nM
- IC50 [18]: 50 nM
- IC50 [19]: 49 nM
- IC50 [20]: 12 nM
- IC50 [21]: 3.3 nM
- IC50 [22]: 2.2 nM
- IC50 [23]: 58 nM
- Kd [24]: 1.6 nM
- IC50 [25]: 3700 nM
- IC50 [26]: 600 nM
- IC50 [27]: 1400 nM
- IC50 [28]: > 10000 nM
- IC50 [29]: 3700 nM
- IC50 [30]: > 10000 nM
- IC50 (Angiopoietin-1 receptor): 740 nM
- IC50 [31]: > 10000 nM
- IC50 [32]: 120 nM
- IC50 [33]: 280 nM
- AUC (Mus musculus): 2480 ng·h/mL
- IC50 [34]: 15 nM
- T1/2 [35]: 10 h
